Experimental findings from PMC10485159, “Biochemical functions and structure of Caenorhabditis elegans ZK177.8 protein: Aicardi–Goutières syndrome SAMHD1 dNTPase ortholog” (The Journal of Biological Chemistry, 2023) are described below.

Each structure is given as a SMILES string.

Assay [1] deals with T1, hSAMHD1 (Homo sapiens, UniProt Q9Y3Z3).
T1 construct: gene SAMHD1; purified human SAMHD1; construct not described; dGTP-induced tetramer
The assay can be described thus: formaldehyde cross-linking, dGTP-induced tetramerization, SDS-PAGE. Particulars: 2 mM dGTP, 10 μM protein, 50 mM KCl, 5 mM MgCl2, pH 7.5; allosteric activator; dGTPase activity also compared in supplement Fig. S3. It counts as binding.

Assay [2] concerns the target T2, ZK177.8^41–565 (Caenorhabditis elegans, UniProt Q09374, H134R/D135N).
T2 construct: gene sahd-1; tetramer in asymmetric unit
T2 sequence (Q09374 41-565 H134R/D135N): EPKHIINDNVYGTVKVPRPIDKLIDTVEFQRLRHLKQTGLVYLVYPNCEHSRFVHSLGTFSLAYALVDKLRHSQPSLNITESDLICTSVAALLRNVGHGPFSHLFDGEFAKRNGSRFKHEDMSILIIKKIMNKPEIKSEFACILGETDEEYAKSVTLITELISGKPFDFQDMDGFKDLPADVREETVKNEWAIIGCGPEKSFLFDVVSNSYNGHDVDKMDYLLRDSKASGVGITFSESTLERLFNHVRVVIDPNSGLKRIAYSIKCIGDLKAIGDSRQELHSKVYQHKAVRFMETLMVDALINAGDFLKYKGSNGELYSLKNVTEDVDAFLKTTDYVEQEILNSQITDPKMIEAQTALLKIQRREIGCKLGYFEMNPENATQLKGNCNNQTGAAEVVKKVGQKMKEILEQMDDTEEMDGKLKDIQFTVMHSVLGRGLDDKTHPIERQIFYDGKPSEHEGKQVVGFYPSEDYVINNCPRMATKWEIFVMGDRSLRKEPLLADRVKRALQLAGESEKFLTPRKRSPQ
The assay can be described thus: X-ray crystallography, […] Å. Particulars: crystals with 1 mM GTP / 10 mM dATP, pH 5.5. It counts as binding.

T1 sequence (Q9Y3Z3 whole entry): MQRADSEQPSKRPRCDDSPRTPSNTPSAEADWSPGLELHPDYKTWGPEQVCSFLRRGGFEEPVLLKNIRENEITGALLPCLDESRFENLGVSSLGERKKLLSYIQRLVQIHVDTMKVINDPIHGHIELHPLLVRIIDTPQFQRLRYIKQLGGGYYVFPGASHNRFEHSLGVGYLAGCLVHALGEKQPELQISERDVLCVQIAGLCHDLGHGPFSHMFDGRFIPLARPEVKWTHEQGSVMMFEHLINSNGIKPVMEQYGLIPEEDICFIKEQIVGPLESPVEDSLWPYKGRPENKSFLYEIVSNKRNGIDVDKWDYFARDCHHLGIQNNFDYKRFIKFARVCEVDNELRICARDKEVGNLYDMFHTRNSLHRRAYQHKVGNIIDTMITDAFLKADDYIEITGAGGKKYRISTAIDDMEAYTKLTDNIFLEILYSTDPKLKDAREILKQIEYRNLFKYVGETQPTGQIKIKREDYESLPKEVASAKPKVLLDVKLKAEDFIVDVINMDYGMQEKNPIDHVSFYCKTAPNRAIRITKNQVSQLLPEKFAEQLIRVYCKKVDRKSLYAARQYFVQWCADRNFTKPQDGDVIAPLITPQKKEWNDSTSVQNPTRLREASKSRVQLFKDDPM

In the case of `Nc1nc2c(ncn2[C@H]2C[C@H](O)[C@@H](COP(=O)(O)OP(=O)(O)OP(=O)(O)O)O2)c(=O)[nH]1` [dGTP], the “formaldehyde cross-linking, dGTP-induced tetramerization, SDS-PAGE” value in assay [1] is recorded as “we detected the tetramer formation of hSAMHD1 protein only in the presence of dGTP”.

For `Nc1ncnc2c1ncn2[C@H]1C[C@H](O)[C@@H](COP(=O)(O)OP(=O)(O)OP(=O)(O)O)O1` [dATP], the “X-ray crystallography, 1.81 Å” value in assay [2] (catalytic site, unhydrolysed, no catalytic metal, also bound at allosteric site A2) was “within each monomer, a dATP molecule occupies its catalytic site”. For the molecule `Nc1nc2c(ncn2[C@@H]2O[C@H](COP(=O)(O)OP(=O)(O)OP(=O)(O)O)[C@@H](O)[C@H]2O)c(=O)[nH]1` [GTP], the “X-ray crystallography, 1.81 Å” value in assay [2] (allosteric site A1 at tetramer interface) was “Two nucleotides, GTP and dATP, occupy the allosteric site located at the tetramer interface”.
